According to PubChem BioAssay (NCI):
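Grown in 96-well plates, cells were treated for 48 hours with each compound at five concentrations. Insufficient inhibition: endpoint recorded as highest concentration tested. At the GI50, growth is halved. TGI is the concentration that stops growth completely.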

What was measured:
Assay in all cases: inhibition of tumour cell growth, NCI panel, 48 h
SNB-19 CNS = system: SNB-19 CNS
SK-MEL-5 melanoma = system: SK-MEL-5 melanoma
HOP-92 NSCLC = system: HOP-92 NSCLC
SF-268 CNS = system: SF-268 CNS
HCC-2998 colon = system: HCC-2998 colon
OVCAR-5 ovarian = system: OVCAR-5 ovarian
CCRF-CEM leukemia = system: CCRF-CEM leukemia
MDA-MB-231 breast = system: MDA-MB-231 breast
PC-3 prostate = system: PC-3 prostate
OVCAR-8 ovarian = system: OVCAR-8 ovarian

Structure (SMILES) | TGI (SNB-19 CNS) [µM] | TGI (SK-MEL-5 melanoma) [µM] | TGI (HOP-92 NSCLC) [µM] | TGI (SF-268 CNS) [µM] | TGI (HCC-2998 colon) [µM] | TGI (OVCAR-5 ovarian) [µM] | TGI (CCRF-CEM leukemia) [µM] | GI50 (SNB-19 CNS) [µM] | GI50 (SK-MEL-5 melanoma) [µM] | GI50 (HOP-92 NSCLC) [µM] | GI50 (MDA-MB-231 breast) [µM] | TGI (MDA-MB-231 breast) [µM] | GI50 (SF-268 CNS) [µM] | GI50 (OVCAR-5 ovarian) [µM] | GI50 (CCRF-CEM leukemia) [µM] | GI50 (PC-3 prostate) [µM] | TGI (PC-3 prostate) [µM] | GI50 (OVCAR-8 ovarian) [µM] | TGI (OVCAR-8 ovarian) [µM] | GI50 (HCC-2998 colon) [µM]
COC(=O)C(C(=O)C(=O)Nc1ccc([N+](=O)[O-])cc1)c1nc2cc(C)c(C)cc2[nH]c1=O (stereo not given) | > 100 | > 100 | > 100 | > 100 | > 100 | > 100 | > 100 |  |  |  |  |  |  |  |  |  |  |  |  | 
COc1cc(CCNc2nc3cc(N)cc(N)c3nc2-c2ccccc2)cc(OC)c1 | 18.6 | 3.36 | 3.44 | 3.72 |  | 3.69 | 6.48 | 5.92 | 1.79 | 1.61 | 1.57 | 4.55 | 1.74 | 1.83 | 1.36 |  |  |  |  | 
N=C(N)c1ccc(-c2ccc(-c3ccc(Cl)c(Cl)c3)o2)nc1 | 3.7 | 3.15 | 2.97 | 4.73 |  | 3.01 |  | 1.84 | 1.74 | 1.41 | 1.64 | 3.38 | 2.08 | 1.57 |  | 1.72 | 3.29 |  |  | 
C[CH2][Sn]([Cl])([CH2]C)[CH2]C | 10.6 | 2.26 | 0.689 | 7.94 | 1.66 | 8.33 | 3.12 | 1.97 | 0.761 | 0.186 |  |  | 1.59 | 3.33 | 0.368 |  |  | 1.69 | 4.35 | 0.354
O=c1nc(-c2ccccc2)scc1-c1ccccc1 | > 100 | > 100 | > 100 | > 100 |  |  | > 100 |  |  |  |  |  |  |  |  |  |  |  | > 100 | 
COc1ccc2cc(C(=O)/C=C/c3ccco3)ccc2c1 | > 100 | 31.1 | > 100 | 45.5 |  |  |  | > 100 | 12.2 | 62.6 | 29.2 | > 100 | 20 |  |  | 47.4 | > 100 | 34.2 | > 100 | 
Cc1cc2c(=O)c3ccccc3oc2c(C#N)c1C | > 100 | > 100 | > 100 | > 100 | > 100 | > 100 | > 100 |  |  |  |  |  |  |  |  |  | > 100 |  | > 100 | 
C/C=C/C=C\C(=O)C1c2cccc(O)c2C(=O)c2c(O)cc(C)cc21 (stereo not given) | 2.5 | 2.69 | 3.33 | 2.05 | 1.6 | 3.33 | > 100 |  |  |  |  |  |  |  |  |  |  |  | 3.19 | 
O=c1[nH]c(=O)n(C2OC(CO)C(O)C2O)cc1OCc1ccccc1 (stereo not given) | > 100 | > 100 | > 100 | > 100 | > 100 | > 100 | > 78.1 |  |  |  |  |  |  |  |  |  |  |  | > 100 | 
C[C@]12CC/C(=N\OC(=O)Nc3ccccc3)C=C1CC[C@@H]1C2CC[C@@]2(C)C1CC[C@@H]2OC(=O)Nc1ccccc1 (stereo not given in full) | > 100 | > 100 | > 100 | > 100 | > 100 | > 100 | > 100 |  |  |  |  |  |  |  |  |  |  |  | > 100 | 
CCC[CH2][Ge]([CH2]CCC)([CH2]CCC)[O]C(=O)C(OC(C)=O)c1ccccc1 (stereo not given) | 36.9 | 11.6 | 12.3 | 27.8 | 5.63 | 17.5 | > 26.1 | 12 | 0.774 | 0.438 |  |  | 1.46 | 3.36 | 0.229 |  |  | 9.77 | 22.8 | 0.53
O=C1C(Cl)=C(Nc2cccc(O)c2)C(=O)N1c1ccc(Cl)cc1Cl | > 100 | 32.2 |  | > 100 |  | > 100 | 46.9 | 29.9 | 14.7 |  | 23.3 | 77.5 | 28.4 | 40.2 | 17.5 | 13.9 | 38.2 | 28 | 64.2 | 
CCOC1=C2C(C)(CCC3[C@@]4(C)C=CC(=O)C(C)(C)C4CC(O)[C@@]23C)C(c2ccoc2)C1=O (stereo not given in full) | > 100 | 29.5 | 41.9 | > 100 | 31.1 | 36 | 38.9 |  |  |  |  |  |  |  |  |  |  |  | 44.3 | 
CS(=O)(=O)N(CC(=O)O)Cc1ccccc1 | > 100 | > 100 | > 100 | > 100 |  | > 100 | > 100 |  |  |  |  | > 100 |  |  |  |  | > 100 |  | > 100 | 
CCOC(=O)/C(=C/c1ccc(Cl)cc1)N(CC)CC |  | > 100 | > 100 | > 100 | > 100 | > 100 | > 100 |  |  |  |  |  |  |  |  |  |  |  | > 100 | 
O=C(NCc1cccs1)OC1CC2CCC1C2 (stereo not given) | > 100 | > 100 | > 100 | > 100 |  | > 100 | > 100 |  |  |  |  | > 100 |  |  |  |  | > 100 |  | > 100 | 
COc1cccc(N2C(=O)[C@H]3[C@H]4CC(C(C)(C)C)CC[C@H]4c4c([nH]c5ccccc45)[C@H]3C2=O)c1 (stereo not given in full) | 33.9 | 35.6 |  | 54.7 | > 100 |  | 29.7 |  |  |  |  |  |  |  |  |  |  |  | 29.7 | 
N#CC(C(=O)C(=O)Nc1ccc(Cl)c(Cl)c1)c1ccc(Cl)cc1 (stereo not given) | > 100 | > 100 | 99.2 | > 100 | > 100 | > 100 | > 100 |  |  |  |  |  |  |  |  |  |  |  | > 100 | 
Cc1nn(-c2ccccc2)c(C)c1/C=N/N1CCN(Cc2ccccc2)CC1 | > 100 | 36.7 |  | > 100 |  | > 100 |  | > 100 | 18.7 |  | 22.6 | 95.2 | 38 | > 100 |  | 25.2 | 96.5 | > 100 | > 100 | 
COc1ccc2c([nH]c3cc(O)c(C)cc32)c1CC=C(C)C | > 25 | > 25 | > 25 | > 25 | 14.5 | > 25 | 17.5 |  | 8.04 | 8.03 |  |  | 9.66 |  | 5.4 |  |  |  | 10.4 | 5.49
